How the values were obtained:
Details in all cases: incubation time: 72 h
BT-549 [1] = assay: drug sensitivity score (DSS), CellTiter-Blue viability (DSS (AUC-based score)); higher = stronger viability inhibition; extreme values may be limits of the assay
Method in brief: (§1)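 Compound was arrayed in 384-well plates as a 5- or 9-concentration series, and 20 µl of breast cancer cell suspension was seeded on top. After 72 h, each well received 2.5 µl CellTiter-Blue for 2 h at 37 °C before fluorescence reading at 560/590 nm. Per-plate normalisation used 0.1 % DMSO and a positive kill control, and the area under the fitted dose-response curve gave the drug sensitivity score.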

SK-BR-3 [2] = assay: as above
Method in brief: as §1

MDA-MB-453 [3] = assay: as above
Method in brief: as §1

MDA-MB-468 [4] = assay: as above
Method in brief: as §1

DU-4475 = assay: as above
Method in brief: as §1

BT-474 [5] = assay: as above
Method in brief: as §1

HDQ-P1 = assay: as above
Method in brief: as §1

MDA-MB-231 [6] = assay: as above
Method in brief: as §1

CAL-51 [7] = assay: as above
Method in brief: as §1

HCC1599 [8] = assay: as above
Method in brief: as §1

Hs578T = assay: as above
Method in brief: as §1

HCC1143 [9] = assay: as above
Method in brief: as §1

BT-549 [10] = assay: normalised viability (% of control), CellTiter-Blue; higher = more viable cells (about 100 = DMSO control)
Method in brief: (§2)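 Breast cancer cell lines were treated for 72 h in 384-well format and measured by CellTiter-Blue fluorescence at 560/590 nm. Results were normalised per plate to vehicle (100) and a positive kill control (0). The entry is normalised viability at a single listed concentration of the series.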

SK-BR-3 [11] = assay: as above
Method in brief: as §2

CAL-120 = assay: as above
Method in brief: as §2

MDA-MB-453 [12] = assay: as above
Method in brief: as §2

MDA-MB-468 [13] = assay: as above
Method in brief: as §2

BT-474 [14] = assay: as above
Method in brief: as §2

MFM-223 = assay: as above
Method in brief: as §2

HCC1937 = assay: as above
Method in brief: as §2

MDA-MB-231 [15] = assay: as above
Method in brief: as §2

CAL-51 [16] = assay: as above
Method in brief: as §2

HCC1599 [17] = assay: as above
Method in brief: as §2

HCC1143 [18] = assay: as above
Method in brief: as §2

CN1CCN(c2nc(C3=C(c4c[nH]c5ccccc45)C(=O)NC3=O)c3ccccc3n2)CC1 [Sotrastaurin]
Details	drug sensitivity score
BT-474 [5]	0
BT-549 [1]	0
CAL-51 [7]	0
DU-4475	0
HCC1143 [9]	0
HCC1599 [8]	0
HDQ-P1	0
Hs578T	0
MDA-MB-231 [6]	0
MDA-MB-453 [3]	0
MDA-MB-468 [4]	0
SK-BR-3 [2]	0

normalised viability [%]
Details	3 nM	10 nM	30 nM	100 nM	1000 nM	10000 nM
BT-474 [14]	–	112	–	–	109	94.6
BT-549 [10]	–	82.5	–	–	92.8	74.2
CAL-51 [16]	94.4	–	91	90.9	–	–
CAL-120	–	110	–	–	118	110
HCC1143 [18]	–	135	–	–	119	120
HCC1599 [17]	–	121	–	–	108	101
HCC1937	–	54.1	–	–	81.4	95.1
MDA-MB-231 [15]	–	94.5	–	–	101	124
MDA-MB-453 [12]	102	–	105	87.7	–	–
MDA-MB-468 [13]	–	95.6	–	–	93	89.8
MFM-223	–	103	–	–	93.8	74
SK-BR-3 [11]	–	95.6	–	–	103	73.1

CC/C(=C(\c1ccccc1)c1ccc(OCCN(C)C)cc1)c1ccccc1 [Tamoxifen]
Details	drug sensitivity score
BT-474 [5]	0
BT-549 [1]	1.73
CAL-51 [7]	0
DU-4475	0
HCC1143 [9]	0
HCC1599 [8]	0
HDQ-P1	0
Hs578T	0
MDA-MB-231 [6]	0
MDA-MB-453 [3]	2.6
MDA-MB-468 [4]	3.95
SK-BR-3 [2]	0

normalised viability [%]
Details	3 nM	10 nM	30 nM	100 nM	1000 nM	10000 nM
BT-474 [14]	–	111	–	–	117	77.5
BT-549 [10]	–	83.3	–	–	82.8	56.5
CAL-51 [16]	89.5	–	92.2	93.4	–	–
CAL-120	–	110	–	–	100	82.1
HCC1143 [18]	–	113	–	–	110	120
HCC1599 [17]	–	102	–	–	107	90
HCC1937	–	83.4	–	–	83.1	98.6
MDA-MB-231 [15]	–	93.1	–	–	94.6	115
MDA-MB-453 [12]	98.4	–	85.2	103	–	–
MDA-MB-468 [13]	–	100	–	–	106	9.44
MFM-223	–	89	–	–	87.7	54.1
SK-BR-3 [11]	–	101	–	–	107	80.9

COc1cc2c(N3CCN(C(=O)Nc4ccc(OC(C)C)cc4)CC3)ncnc2cc1OCCCN1CCCCC1 [Tandutinib]
Details	drug sensitivity score
BT-474 [5]	0
BT-549 [1]	0
CAL-51 [7]	0
DU-4475	0
HCC1143 [9]	0
HCC1599 [8]	0
HDQ-P1	0
Hs578T	0
MDA-MB-231 [6]	0
MDA-MB-453 [3]	0
MDA-MB-468 [4]	0
SK-BR-3 [2]	0

normalised viability [%]
Details	0.3 nM	1 nM	3 nM	10 nM	100 nM	1000 nM
BT-474 [14]	–	138	–	–	116	125
BT-549 [10]	–	108	–	–	95.2	94.1
CAL-51 [16]	110	–	101	94.2	–	–
CAL-120	–	110	–	–	106	114
HCC1143 [18]	–	100	–	–	118	108
HCC1599 [17]	–	99.1	–	–	121	103
HCC1937	–	101	–	–	78.2	115
MDA-MB-231 [15]	–	107	–	–	108	122
MDA-MB-453 [12]	117	–	94.9	96.9	–	–
MDA-MB-468 [13]	–	105	–	–	118	110
MFM-223	–	104	–	–	98	113
SK-BR-3 [11]	–	111	–	–	111	114

C[C@@H](C(=O)O)c1ccc(-c2ccccc2)c(F)c1 [Tarenflurbil]
Details	drug sensitivity score
BT-474 [5]	0
BT-549 [1]	0
CAL-51 [7]	0
DU-4475	0
HCC1143 [9]	0
HCC1599 [8]	0
HDQ-P1	0
Hs578T	0
MDA-MB-231 [6]	0
MDA-MB-453 [3]	1.49
MDA-MB-468 [4]	0
SK-BR-3 [2]	0

normalised viability [%]
Details	3 nM	10 nM	30 nM	100 nM	1000 nM	10000 nM
BT-474 [14]	–	112	–	–	107	113
BT-549 [10]	–	97.6	–	–	104	112
CAL-51 [16]	118	–	115	111	–	–
CAL-120	–	94	–	–	92.2	99.4
HCC1143 [18]	–	86.4	–	–	95.3	86.9
HCC1599 [17]	–	94.6	–	–	118	106
HCC1937	–	84.3	–	–	92.9	102
MDA-MB-231 [15]	–	97.8	–	–	88.6	103
MDA-MB-453 [12]	106	–	89.2	85.6	–	–
MDA-MB-468 [13]	–	100	–	–	119	90
MFM-223	–	93.6	–	–	97.2	93.2
SK-BR-3 [11]	–	99.3	–	–	105	126

Cn1nnc2c(C(N)=O)ncn2c1=O [Temozolomide]
Details	drug sensitivity score
BT-474 [5]	0
BT-549 [1]	2.1
CAL-51 [7]	0
DU-4475	0
HCC1143 [9]	0
HCC1599 [8]	0
HDQ-P1	1.58
Hs578T	0
MDA-MB-231 [6]	0
MDA-MB-453 [3]	0
MDA-MB-468 [4]	0
SK-BR-3 [2]	0

normalised viability [%]
Details	3 nM	10 nM	30 nM	100 nM	1000 nM	10000 nM
BT-474 [14]	–	94.7	–	–	100	87.5
BT-549 [10]	–	105	–	–	91.6	74.7
CAL-51 [16]	91.1	–	96.3	91.4	–	–
CAL-120	–	101	–	–	104	100
HCC1143 [18]	–	90.5	–	–	95.9	102
HCC1599 [17]	–	103	–	–	89.8	117
HCC1937	–	88.3	–	–	105	116
MDA-MB-231 [15]	–	101	–	–	88	91
MDA-MB-453 [12]	112	–	108	100	–	–
MDA-MB-468 [13]	–	92.3	–	–	89.5	99.1
MFM-223	–	98.4	–	–	96.7	103
SK-BR-3 [11]	–	95.1	–	–	99.8	113

CC[C@@H]1C(=O)N(C)c2cnc(Nc3ccc(C(=O)N[C@H]4CC[C@H](N5CCN(CC6CC6)CC5)CC4)cc3OC)nc2N1C(C)C [Volasertib]
Details	drug sensitivity score
BT-474 [5]	8.65
BT-549 [1]	12.3
CAL-51 [7]	17.6
DU-4475	14.7
HCC1143 [9]	13.4
HCC1599 [8]	0
HDQ-P1	5.17
Hs578T	11.3
MDA-MB-231 [6]	12.3
MDA-MB-453 [3]	19.2
MDA-MB-468 [4]	11.9
SK-BR-3 [2]	19.8

normalised viability [%]
Details	0.3 nM	1 nM	3 nM	10 nM	100 nM	1000 nM
BT-474 [14]	–	127	–	–	56.6	96.8
BT-549 [10]	–	94.9	–	–	36.9	41.6
CAL-51 [16]	116	–	99.8	100	–	–
CAL-120	–	91.1	–	–	26.8	24.7
HCC1143 [18]	–	86.3	–	–	41.2	41.2
HCC1599 [17]	–	94.6	–	–	86.2	74
HCC1937	–	131	–	–	30.8	34.9
MDA-MB-231 [15]	–	114	–	–	36.3	45.9
MDA-MB-453 [12]	117	–	89.9	46.2	–	–
MDA-MB-468 [13]	–	104	–	–	45	51.9
MFM-223	–	88.8	–	–	48.9	56.2
SK-BR-3 [11]	–	105	–	–	20.7	24.1

From the supplement of paper PMC4862054
